US10689377B2 (Mirati Therapeutics, Inc., priority 2017, dated 2020)

biological target: KRas G12C (Homo sapiens, UniProt P01116, G12C); experiment: Cellular inhibition of KRas G12C measured by Phospho-ERK in NCI-H358 cells; format: cell-based; details: pERK(Thr202/Tyr204) normalized with GAPDH, NCI-H358 cells, 3 hours; read-out: IC50
How it was run: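 Ratio of phospho-ERK(Thr202/Tyr204) to GAPDH, read by near-infrared secondary antibodies on fixed, permeabilised NCI-H358 cells, expressed relative to DMSO control. Compound exposure was 3 h at 0.5% DMSO. IC50 values come from 4-parameter curve fits.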

KRas G12C, sequence (P01116 1-188 isoform P01116-2 G12C): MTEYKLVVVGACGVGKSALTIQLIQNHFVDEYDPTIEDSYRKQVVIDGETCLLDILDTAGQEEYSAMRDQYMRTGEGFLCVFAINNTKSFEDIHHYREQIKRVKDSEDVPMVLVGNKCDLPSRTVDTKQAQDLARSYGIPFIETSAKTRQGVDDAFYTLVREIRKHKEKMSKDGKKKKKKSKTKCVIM

Structure (SMILES)	IC50 [µM]
C=CC(=O)N1CCN(c2nc(O[C@H](C)CN(C)C)nc3c2CCN(c2cc(O)ccc2OC(F)(F)F)C3)CC1 [Example 78, (R)-1-(4-(2-((1-(dimethylamino)propan-2-yl)oxy)-7-(5-hydroxy-2-(trifluoromethoxy)phenyl)-5,6,7,8-tetrahydropyrido[3,4-d]pyrimidin-4-yl)piperazin-1-yl)prop-2-en-1-one]	> 1
C=CC(=O)N1CCN(c2nc(O[C@H](C)CN(C)C)nc3c2CCN(c2cc(O)ccc2C(F)(F)F)C3)CC1 [Example 79, (R)-1-(4-(2-((1-(dimethylamino)propan-2-yl)oxy)-7-(5-hydroxy-2-(trifluoromethyl)phenyl)-5,6,7,8-tetrahydropyrido[3,4-d]pyrimidin-4-yl)piperazin-1-yl)prop-2-en-1-one]	> 1
C=CC(=O)N1CCN(c2nc(OCC3CN(C)CCN3)nc3c2CCN(c2cc(O)cc4ccccc24)C3)CC1 (stereo not drawn) [Example 80, 1-(4-(7-(3-hydroxynaphthalen-1-yl)-2-((4-methylpiperazin-2-yl)methoxy)-5,6,7,8-tetrahydropyrido[3,4-d]pyrimidin-4-yl)piperazin-1-yl)prop-2-en-1-one]	> 1
C=CC(=O)N1CCN(c2nc(OCCN3CCC(C#N)CC3)nc3c2CCN(c2cc(O)cc4ccccc24)C3)CC1 [Example 81, 1-(2-((4-(4-acryloylpiperazin-1-yl)-7-(3-hydroxynaphthalen-1-yl)-5,6,7,8-tetrahydropyrido[3,4-d]pyrimidin-2-yl)oxy)ethyl)piperidine-4-carbonitrile]	> 1
C=CC(=O)N1CCN(c2nc(OCCCN3CCN(C)CC3)nc3c2CCN(c2cc(O)cc4ccccc24)C3)CC1 [Example 82, 1-(4-(7-(3-hydroxynaphthalen-1-yl)-2-(3-(4-methylpiperazin-1-yl)propoxy)-5,6,7,8-tetrahydropyrido[3,4-d]pyrimidin-4-yl)piperazin-1-yl)prop-2-en-1-one]	0.0001 to 1
C=CC(=O)N1CCN(c2nc(OCCN(C)CCO)nc3c2CCN(c2cc(O)cc4ccccc24)C3)CC1 [Example 83, 1-(4-(2-(2-((2-hydroxyethyl)(methyl)amino)ethoxy)-7-(3-hydroxynaphthalen-1-yl)-5,6,7,8-tetrahydropyrido[3,4-d]pyrimidin-4-yl)piperazin-1-yl)prop-2-en-1-one]	> 1
C=CC(=O)N1CCN(c2nc(O[C@H](C)CN(C)C)nc3c2CCN(c2c(O)ccc(C)c2F)C3)CC1 [Example 84, (R)-1-(4-(2-((1-(dimethylamino)propan-2-yl)oxy)-7-(2-fluoro-6-hydroxy-3-methylphenyl)-5,6,7,8-tetrahydropyrido[3,4-d]pyrimidin-4-yl)piperazin-1-yl)prop-2-en-1-one]	> 1
C=CC(=O)N1CCN(c2nc(OCCN3CCCC3)nc3c2CCN(c2cc(O)cc4ccccc24)C3)CC1 [Example 85, 1-(4-(7-(3-hydroxynaphthalen-1-yl)-2-(2-(pyrrolidin-1-yl)ethoxy)-5,6,7,8-tetrahydropyrido[3,4-d]pyrimidin-4-yl)piperazin-1-yl)prop-2-en-1-one]	> 1
C=CC(=O)N1CCN(c2nc(O[C@H](C)CN(C)C)nc3c2CCN(c2cc(OC(F)(F)F)ccc2O)C3)CC1 [Example 86, (R)-1-(4-(2-((1-(dimethylamino)propan-2-yl)oxy)-7-(2-hydroxy-5-(trifluoromethoxy)phenyl)-5,6,7,8-tetrahydropyrido[3,4-d]pyrimidin-4-yl)piperazin-1-yl)prop-2-en-1-one]	> 1
C=CC(=O)N1CCN(c2nc(O[C@H](C)CN(C)C)nc3c2CCN(c2c(C)ccc(F)c2O)C3)CC1 [Example 87, (R)-1-(4-(2-((1-(dimethylamino)propan-2-yl)oxy)-7-(3-fluoro-2-hydroxy-6-methylphenyl)-5,6,7,8-tetrahydropyrido[3,4-d]pyrimidin-4-yl)piperazin-1-yl)prop-2-en-1-one]	> 1
C=CC(=O)N1CCN(c2nc(OCCN3CCCC[C@@H]3C)nc3c2CCN(c2cc(O)cc4ccccc24)C3)CC1 [Example 88, (S)-1-(4-(7-(3-hydroxynaphthalen-1-yl)-2-(2-(2-methylpiperidin-1-yl)ethoxy)-5,6,7,8-tetrahydropyrido[3,4-d]pyrimidin-4-yl)piperazin-1-yl)prop-2-en-1-one]	0.0001 to 1
C=CC(=O)N1CCN(c2nc(OCC3CCN(C)C3)nc3c2CCN(c2cc(O)cc4ccccc24)C3)CC1 (stereo not drawn) [Example 89, 1-(4-(7-(3-hydroxynaphthalen-1-yl)-2-((1-methylpyrrolidin-3-yl)methoxy)-5,6,7,8-tetrahydropyrido[3,4-d]pyrimidin-4-yl)piperazin-1-yl)prop-2-en-1-one]	0.0001 to 1
C=CC(=O)N1CCN(c2nc(OCCCN3CCOCC3)nc3c2CCN(c2cc(O)ccc2OC(F)(F)F)C3)CC1 [Example 90, 1-(4-(7-(5-hydroxy-2-(trifluoromethoxy)phenyl)-2-(3-morpholinopropoxy)-5,6,7,8-tetrahydropyrido[3,4-d]pyrimidin-4-yl)piperazin-1-yl)prop-2-en-1-one]	0.0001 to 1
C=CC(=O)N1CCN(c2nc(O[C@H](C)CN(C)C)nc3c2CCN(c2cc(O)cc(OC(F)(F)F)c2)C3)CC1 [Example 91, (R)-1-(4-(2-((1-(dimethylamino)propan-2-yl)oxy)-7-(3-hydroxy-5-(trifluoromethoxy)phenyl)-5,6,7,8-tetrahydropyrido[3,4-d]pyrimidin-4-yl)piperazin-1-yl)prop-2-en-1-one]	> 1
C=CC(=O)N1CCN(c2nc(OCCN3CCC(C)CC3)nc3c2CCN(c2cc(O)cc4ccccc24)C3)CC1 [Example 92, 1-(4-(7-(3-hydroxynaphthalen-1-yl)-2-(2-(4-methylpiperidin-1-yl)ethoxy)-5,6,7,8-tetrahydropyrido[3,4-d]pyrimidin-4-yl)piperazin-1-yl)prop-2-en-1-one]	0.0001 to 1
C=CC(=O)N1CCN(c2nc(OC(C)CCN3CCOCC3)nc3c2CCN(c2cc(O)cc4ccccc24)C3)CC1 (stereo not drawn) [Example 93, 1-(4-(7-(3-hydroxynaphthalen-1-yl)-2-((4-morpholinobutan-2-yl)oxy)-5,6,7,8-tetrahydropyrido[3,4-d]pyrimidin-4-yl)piperazin-1-yl)prop-2-en-1-one]	> 1
C=CC(=O)N1CCN(c2nc(O[C@H](C)CN(C)C)nc3c2CCN(c2cc(O)ccc2OC)C3)CC1 [Example 94, (R)-1-(4-(2-((1-(dimethylamino)propan-2-yl)oxy)-7-(5-hydroxy-2-methoxyphenyl)-5,6,7,8-tetrahydropyrido[3,4-d]pyrimidin-4-yl)piperazin-1-yl)prop-2-en-1-one]	> 1
C=CC(=O)N1CCN(c2nc(O[C@H](C)CN(C)C)nc3c2CCN(c2c(C)cccc2O)C3)CC1 [Example 95, (R)-1-(4-(2-((1-(dimethylamino)propan-2-yl)oxy)-7-(2-hydroxy-6-methylphenyl)-5,6,7,8-tetrahydropyrido[3,4-d]pyrimidin-4-yl)piperazin-1-yl)prop-2-en-1-one]	> 1
C=CC(=O)N1CCN(c2nc(OCCCN3CCOCC3)nc3c2CCN(c2cc(O)ccc2OC(C)C)C3)CC1 [Example 96, 1-(4-(7-(5-hydroxy-2-isopropoxyphenyl)-2-(3-morpholinopropoxy)-5,6,7,8-tetrahydropyrido[3,4-d]pyrimidin-4-yl)piperazin-1-yl)prop-2-en-1-one]	> 1
C=CC(=O)N1CCN(c2nc(OCCN3CCCC[C@H]3C)nc3c2CCN(c2cc(O)cc4ccccc24)C3)CC1 [Example 97, (R)-1-(4-(7-(3-hydroxynaphthalen-1-yl)-2-(2-(2-methylpiperidin-1-yl)ethoxy)-5,6,7,8-tetrahydropyrido[3,4-d]pyrimidin-4-yl)piperazin-1-yl)prop-2-en-1-one]	0.0001 to 1
C=CC(=O)N1CCN(c2nc(OCCN3CCC[C@H](OC)C3)nc3c2CCN(c2cc(O)cc4ccccc24)C3)CC1 [Example 98, (S)-1-(4-(7-(3-hydroxynaphthalen-1-yl)-2-(2-(3-methoxypiperidin-1-yl)ethoxy)-5,6,7,8-tetrahydropyrido[3,4-d]pyrimidin-4-yl)piperazin-1-yl)prop-2-en-1-one]	> 1
C=CC(=O)N1CCN(c2nc(OCCN3CCC[C@@H](OC)C3)nc3c2CCN(c2cc(O)cc4ccccc24)C3)CC1 [Example 99, (R)-1-(4-(7-(3-hydroxynaphthalen-1-yl)-2-(2-(3-methoxypiperidin-1-yl)ethoxy)-5,6,7,8-tetrahydropyrido[3,4-d]pyrimidin-4-yl)piperazin-1-yl)prop-2-en-1-one]	> 1
C=CC(=O)N1CCN(c2nc(OC3CCN(C4CC4)CC3)nc3c2CCN(c2cc(O)cc4ccccc24)C3)CC1 [Example 100, 1-(4-(2-((1-cyclopropylpiperidin-4-yl)oxy)-7-(3-hydroxynaphthalen-1-yl)-5,6,7,8-tetrahydropyrido[3,4-d]pyrimidin-4-yl)piperazin-1-yl)prop-2-en-1-one]	> 1
C=CC(=O)N1CCN(c2nc(OCCCN3CCCOCC3)nc3c2CCN(c2cc(O)cc4ccccc24)C3)CC1 [Example 101, 1-(4-(2-(3-(1,4-oxazepan-4-yl)propoxy)-7-(3-hydroxynaphthalen-1-yl)-5,6,7,8-tetrahydropyrido[3,4-d]pyrimidin-4-yl)piperazin-1-yl)prop-2-en-1-one]	0.0001 to 1
C=CC(=O)N1CCN(c2nc(OCCN(CC)CC)nc3c2CCN(c2cc(O)cc4ccccc24)C3)CC1 [Example 102]	0.0001 to 1
C=CC(=O)N1CCN(c2nc(OCC3CCN(CCOC)C3)nc3c2CCN(c2cc(O)cc4ccccc24)C3)CC1 (stereo not drawn) [Example 103, 1-(4-(7-(3-hydroxynaphthalen-1-yl)-2-((1-(2-methoxyethyl)pyrrolidin-3-yl)methoxy)-5,6,7,8-tetrahydropyrido[3,4-d]pyrimidin-4-yl)piperazin-1-yl)prop-2-en-1-one]	0.0001 to 1
C=CC(=O)N1CCN(c2nc(OCCCN3C[C@@H]4C[C@H]3CO4)nc3c2CCN(c2cc(O)cc4ccccc24)C3)CC1 [Example 104, 1-(4-(2-(3-((1S,4S)-2-oxa-5-azabicyclo[2.2.1]heptan-5-yl)propoxy)-7-(3-hydroxynaphthalen-1-yl)-5,6,7,8-tetrahydropyrido[3,4-d]pyrimidin-4-yl)piperazin-1-yl)prop-2-en-1-one]	0.0001 to 1
